According to US20250296971A1, “GASTRIC INHIBITORY PEPTIDE RECEPTOR LIGANDS” (priority 2021, published 2025):
Read-outs that look alike come from different tables or passages of the source. *1 amine or outer side, *2 acyl side, *3 side chain or, on linkers, in order; H or OH if unused. Where a SMILES comes first, the peptide text is derived from it. Bridges are numbered along the chain shown (N, C = ends). [ ]: non-standard residue; d: D form. The star is where a group is joined. NH(1-deoxy-D-glucityl) = OC[C@@H](O)[C@@H](O)[C@H](O)[C@@H](O)CN*; DOTA = O=C(O)CN1CCN(CC(=O)O)CCN(CC(=O)*)CCN(CC(=O)O)CC1; Trp(5-Cl) = N[C@@H](Cc1c[nH]c2ccc(Cl)cc12)C(=O)O; Pyridine(2,6-diCH2) = c1cc(C[*:1])nc(C[*:2])c1; Phe(2-Cl) = N[C@@H](Cc1ccccc1Cl)C(=O)O; Pro(4R-NH2) = N[C@H]1CN[C@H](C(=O)O)C1; 1Nal = N[C@@H](Cc1cccc2ccccc12)C(=O)O; mXylylene = c1cc(C[*:1])cc(C[*:2])c1; Glutaryl = O=C(CCCC(=O)[*:2])[*:1]; Hyp = O=C(O)[C@@H]1C[C@@H](O)CN1; X1 = O=C(CN1CCC(N[*:1])CC1)[*:2]; hCys = N[C@@H](CCS)C(=O)O; hSer = N[C@@H](CCO)C(=O)O; Api = NC1(C(=O)O)CCNCC1; Thp = NC1(C(=O)O)CCOCC1; Aib = CC(C)(N)C(=O)O; Sar = CNCC(=O)O

Biological target: T1, GIPR (CHO-K1-hGIPR cells) (Homo sapiens, UniProt P48546)
T1 construct: host or cells: CHO-K1
T1 sequence (P48546 22-466): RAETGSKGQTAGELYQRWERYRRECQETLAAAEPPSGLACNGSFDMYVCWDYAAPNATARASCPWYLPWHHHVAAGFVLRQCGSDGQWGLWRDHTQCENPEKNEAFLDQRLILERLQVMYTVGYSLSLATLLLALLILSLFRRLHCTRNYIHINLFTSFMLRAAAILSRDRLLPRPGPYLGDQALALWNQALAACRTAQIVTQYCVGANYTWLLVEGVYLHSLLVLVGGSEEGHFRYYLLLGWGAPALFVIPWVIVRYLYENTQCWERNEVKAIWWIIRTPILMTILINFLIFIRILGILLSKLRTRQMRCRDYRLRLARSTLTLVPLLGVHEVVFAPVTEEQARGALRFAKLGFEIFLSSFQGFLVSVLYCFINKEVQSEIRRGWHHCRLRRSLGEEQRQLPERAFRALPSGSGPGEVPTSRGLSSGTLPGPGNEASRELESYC
Test: FACS binding assay
Conditions: read-out: pIC50 Category (converted)
In short: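 Peptide binding read by flow cytometry as APC-channel median fluorescence, fitted with a four-parameter logistic to yield EC50 or IC50. Cells were hGIPR-transfected CHO-K1 in PBS with 1% FCS, detected with 1 μg/mL APC-streptavidin, 30 min on ice.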

[1] = competition with 20 nM GIP-057, 4° C. for 1 hour
[2] = competition with 20 nM GIP-057, 4° C., 1 hour

Row | Compound | IC50 [1] | IC50 [2]
1 | CC[C@H](C)[C@@H]1NC(=O)[C@H](CC(C)C)NC(=O)C2(CCN(C(=O)CN3CCN(CC(=O)O)CCN(CC(=O)O)CCN(CC(=O)O)CC3)CC2)NC(=O)[C@@H](NC(=O)[C@@H](CC(C)C)NC(=O)[C@H](CCC(=O)O)NC(=O)[C@@H]2C[C@@H](N)CN2C(=O)[C@H](Cc2c[nH]c3ccc(Cl)cc23)NC(=O)[C@H](Cc2c[nH]c3ccccc23)NC(=O)[C@H](CCO)NC(=O)CCCC(=O)NC[C@H](O)[C@@H](O)[C@H](O)[C@H](O)CO)CSCc2cccc(n2)CSC[C@@H](C(=O)NC2CCN(CC(=O)N[C@H](CCC(=O)NC[C@H](O)[C@@H](O)[C@H](O)[C@H](O)CO)C(N)=O)CC2)NC1=O [GIP-034, AGLU-Glutar-Hse-Trp-5Clw-Tap-Glu-leu-[Cys(2Lut)-Apc(DOTA)-Leu-Ile-Cys]-APAc-glu(AGLU)-NH2] ({NH(1-deoxy-D-glucityl)-Glutaryl}-[hSer]W[Trp(5-Cl)][Pro(4R-NH2)]E[dL]C[Api](DOTA)LIC[X1][dE](NH(1-deoxy-D-glucityl))-NH2; linker 7-11 via Pyridine(2,6-diCH2)) | – | < 10 nM
2 | CC[C@H](C)[C@@H]1NC(=O)[C@H](CC(C)C)NC(=O)C2(CCOCC2)NC(=O)[C@@H](NC(=O)[C@@H](CC(C)C)NC(=O)[C@H](CCC(=O)O)NC(=O)CN(C)C(=O)[C@H](Cc2c[nH]c3ccc(Cl)cc23)NC(=O)[C@H](Cc2c[nH]c3ccccc23)NC(=O)[C@H](CC(=O)O)NC(C)=O)CSCc2cccc(n2)CSC[C@@H](C(N)=O)NC1=O [GIP-183, Ac-Asp-Trp-5Clw-Nmg-Glu-leu-[Cys(2Lut)-Thp-Leu-Ile-Cys]-NH2] (Ac-DW[Trp(5-Cl)][Sar]E[dL]C[Thp]LIC-NH2; linker 7-11 via Pyridine(2,6-diCH2)) | – | < 10 nM
3 | CC[C@H](C)[C@@H]1NC(=O)[C@H](CC(C)C)NC(=O)C(C)(C)NC(=O)[C@@H](NC(=O)[C@H](CCCCN)NC(=O)[C@H](CCC(=O)O)NC(=O)[C@@H]2CCCN2C(=O)[C@H](Cc2cccc3ccccc23)NC(=O)[C@H](Cc2c[nH]c3ccccc23)NC(=O)[C@H](CC(=O)O)NC(C)=O)CSCc2cccc(c2)CSC[C@@H](C(N)=O)NC1=O [GIP-345, Ac-Asp-Trp-1Ni-Pro-Glu-Lys-[Cys(3MeBn)-Aib-Leu-Ile-Cys]-NH2] (Ac-DW[1Nal]PEKC[Aib]LIC-NH2; linker 7-11 via mXylylene) | > 1000 nM | –

Now from value to compound:

Row | IC50 [1] | IC50 [2] | Compound
4 | 10 to 79.4 nM | – | CC[C@H](C)[C@@H]1NC(=O)[C@H](CC(C)C)NC(=O)C2(CCN(C(=O)CN3CCN(CC(=O)O)CCN(CC(=O)O)CCN(CC(=O)O)CC3)CC2)NC(=O)[C@@H](NC(=O)[C@@H](CC(C)C)NC(=O)[C@H](CCC(=O)O)NC(=O)[C@@H]2C[C@@H](O)CN2C(=O)[C@H](Cc2c[nH]c3ccc(Cl)cc23)NC(=O)[C@H](Cc2ccccc2Cl)NC(=O)[C@H](CC(=O)O)NC(C)=O)CSCc2cccc(n2)CSC[C@@H](C(N)=O)NC1=O [GIP-392, Ac-Asp-Ocf-5Clw-Hyp-Glu-leu-[Cys(2Lut)-Apc(DOTA)-Leu-Ile-Cys]-NH2] (Ac-D[Phe(2-Cl)][Trp(5-Cl)][Hyp]E[dL]C[Api](DOTA)LIC-NH2; linker 7-11 via Pyridine(2,6-diCH2))
5 | – | < 10 nM | CC[C@H](C)[C@@H]1NC(=O)[C@H](CC(C)C)NC(=O)C2(CCOCC2)NC(=O)[C@@H](NC(=O)[C@@H](CC(C)C)NC(=O)[C@H](CCC(=O)O)NC(=O)[C@@H]2C[C@@H](O)CN2C(=O)[C@H](Cc2c[nH]c3ccc(Cl)cc23)NC(=O)[C@H](Cc2c[nH]c3ccccc23)NC(=O)[C@H](CC(=O)O)NC(C)=O)CCSCc2cccc(n2)CSCC[C@@H](C(N)=O)NC1=O [GIP-202, Ac-Asp-Trp-5Clw-Hyp-Glu-leu-[Hcy(2Lut)-Thp-Leu-Ile-Hcy]-NH2] (Ac-DW[Trp(5-Cl)][Hyp]E[dL][hCys][Thp]LI[hCys]-NH2; linker 7-11 via Pyridine(2,6-diCH2))
6 | > 1000 nM | – | CC[C@H](C)[C@@H]1NC(=O)[C@H](CC(C)C)NC(=O)C2(CCOCC2)NC(=O)[C@@H](NC(=O)[C@@H](CC(C)C)NC(=O)[C@H](CCC(=O)O)NC(=O)[C@@H]2C[C@@H](O)CN2C(=O)[C@H](Cc2ccccc2Cl)NC(=O)[C@H](Cc2c[nH]c3ccccc23)NC(=O)[C@H](CC(=O)O)NC(C)=O)CSCc2cccc(n2)CSC[C@@H](C(N)=O)NC1=O [GIP-349, Ac-Asp-Trp-Ocf-Hyp-Glu-leu-[Cys(2Lut)-Thp-Leu-Ile-Cys]-NH2] (Ac-DW[Phe(2-Cl)][Hyp]E[dL]C[Thp]LIC-NH2; linker 7-11 via Pyridine(2,6-diCH2))
